The test system of the experiment is neuropathic pain. The experiment is described as follows: oral administration to a patient with neuropathic pain. The class given is in vivo, human. As to conditions: one patient, 10 mg orally once daily for weight loss; pain returned on discontinuation, disappeared again on re-administration. As for the experimental part: Sibutramine 10 mg was administered orally once daily for weight loss to a patient who also had neuropathic pain. The neuropathic pain disappeared. Therapy with sibutramine was discontinued and the neuropathic pain returned. When sibutramine was then administered again, the neuropathic pain disappeared.

Turning to `CC(C)CC(N(C)C)C1(c2ccc(Cl)cc2)CCC1` (stereo not shown) [Sibutramine, N,N-dimethyl-1-[1-(4-chlorophenyl)cyclobutyl]-3-methylbutylamine], the neuropathic pain entry is recorded as “disappeared”.

The values above are taken from US6803387B1, “Treatment of neuropathic pain or fibromyalgia” (Abbott GmbH & Co. KG, priority 1999, dated 2004).
